Test [1] addresses recombinant human GCN2 protein (Homo sapiens, UniProt Q9P2K8). Put plainly: General control nonderepressible 2 (GCN2) inhibitory capacity, 33P-ATP filter assay. It is filed as biochemical. The conditions noted are these: recombinant human GCN2, 70 uM [gamma-33P-ATP], 40 minutes, room temperature.
The target in test [2] is recombinant human HRI protein (Homo sapiens, UniProt Q9BQI3). In words: eIF2-alpha kinase heme-regulated inhibitor (HRI) inhibitory capacity, 33P-ATP filter assay. The test is classed as biochemical. The conditions noted are these: 45 uM [gamma-33P-ATP], 40 minutes, room temperature. As to the method: <Experimental Example 3> Evaluation of eIF2-Alpha Kinase Heme-Regulated Inhibitor (HRI) Inhibitory Capacity
Chain of recombinant human HRI protein (Q9BQI3 whole entry): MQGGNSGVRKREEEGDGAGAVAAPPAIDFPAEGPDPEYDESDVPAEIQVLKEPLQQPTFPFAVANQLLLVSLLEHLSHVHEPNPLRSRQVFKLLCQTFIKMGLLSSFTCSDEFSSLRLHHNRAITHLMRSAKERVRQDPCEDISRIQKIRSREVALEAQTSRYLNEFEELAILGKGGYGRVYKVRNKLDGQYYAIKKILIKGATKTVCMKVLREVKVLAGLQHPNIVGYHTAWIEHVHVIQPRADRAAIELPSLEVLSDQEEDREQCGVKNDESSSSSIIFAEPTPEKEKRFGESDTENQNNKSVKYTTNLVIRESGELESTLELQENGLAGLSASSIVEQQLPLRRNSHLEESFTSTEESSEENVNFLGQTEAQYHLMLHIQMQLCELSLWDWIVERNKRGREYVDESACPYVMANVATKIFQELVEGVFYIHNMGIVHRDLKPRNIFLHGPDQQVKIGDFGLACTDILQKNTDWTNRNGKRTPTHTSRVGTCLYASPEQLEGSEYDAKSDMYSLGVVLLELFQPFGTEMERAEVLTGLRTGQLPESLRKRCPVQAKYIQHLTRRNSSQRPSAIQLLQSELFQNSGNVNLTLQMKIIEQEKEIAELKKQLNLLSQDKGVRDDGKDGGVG
A recombinant human HRI protein was mixed with the compound in a reaction solution (50 mM Tris/HCl pH 7.5, 0.04 mM EDTA, 300 uM RSRSRSRSRSRSRSR, 10 mM Magnesium acetate, 45 uM [gamma-33P-ATP]) and reacted at room temperature for 40 minutes. Then, the reaction was terminated by adding phosphoric acid (0.5%) to the reaction mixture, and […] of the reaction solution was dropped onto a P30 filter. The filter was washed four times in a 0.425% phosphoric acid solution for 4 minutes, then […] washed once more in methanol, dried, and the HRI activity was measured by scintillation counting. […] The compound was diluted by 1/3 from the highest concentration of 1 uM and treated with a total of 9 concentrations to evaluate the degree of inhibition.

The target in test [3] is T1, recombinant human PERK protein (Homo sapiens, UniProt Q9NZJ5).
T1 sequence (Q9NZJ5 30-1116): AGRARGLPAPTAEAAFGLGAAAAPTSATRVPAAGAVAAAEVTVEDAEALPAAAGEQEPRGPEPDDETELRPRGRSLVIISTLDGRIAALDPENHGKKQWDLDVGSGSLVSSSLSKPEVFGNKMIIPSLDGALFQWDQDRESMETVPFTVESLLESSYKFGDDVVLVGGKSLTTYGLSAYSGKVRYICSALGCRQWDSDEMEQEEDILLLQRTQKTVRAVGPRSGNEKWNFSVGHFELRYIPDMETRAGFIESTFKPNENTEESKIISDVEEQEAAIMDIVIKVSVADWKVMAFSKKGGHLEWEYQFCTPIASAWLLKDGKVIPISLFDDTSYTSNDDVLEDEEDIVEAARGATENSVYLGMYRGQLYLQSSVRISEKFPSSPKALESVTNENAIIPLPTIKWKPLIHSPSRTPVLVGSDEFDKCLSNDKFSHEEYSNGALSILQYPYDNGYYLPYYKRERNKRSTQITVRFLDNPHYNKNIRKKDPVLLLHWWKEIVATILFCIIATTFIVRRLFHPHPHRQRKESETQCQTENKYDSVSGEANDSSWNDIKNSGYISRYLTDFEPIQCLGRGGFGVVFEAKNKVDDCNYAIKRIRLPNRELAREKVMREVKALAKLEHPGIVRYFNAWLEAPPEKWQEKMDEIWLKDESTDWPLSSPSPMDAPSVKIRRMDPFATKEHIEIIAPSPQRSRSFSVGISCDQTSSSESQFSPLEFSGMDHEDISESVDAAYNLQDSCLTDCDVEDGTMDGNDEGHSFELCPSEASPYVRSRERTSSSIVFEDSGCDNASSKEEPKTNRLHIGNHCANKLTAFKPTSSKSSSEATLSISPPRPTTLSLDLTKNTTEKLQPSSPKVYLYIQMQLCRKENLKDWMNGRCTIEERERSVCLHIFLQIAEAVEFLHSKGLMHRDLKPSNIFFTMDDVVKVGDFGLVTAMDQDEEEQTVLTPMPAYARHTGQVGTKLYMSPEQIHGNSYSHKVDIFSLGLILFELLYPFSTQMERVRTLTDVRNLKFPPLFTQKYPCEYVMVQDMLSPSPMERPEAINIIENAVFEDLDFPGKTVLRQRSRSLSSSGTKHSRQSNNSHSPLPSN
Put plainly: PKR-like endoplasmic reticulum kinase (PERK) inhibitory capacity, 33P-ATP filter assay. The test is classed as biochemical. The conditions noted are these: 15 uM [gamma-33P-ATP], 40 minutes, room temperature. As to the method:
<Experimental Example 1> Evaluation of PKR-Like Endoplasmic Reticulum Kinase (PERK) Inhibitory Capacity
(§1) A recombinant human PERK protein was mixed with the compound in a reaction solution (8 mM MOPS pH 7.0, 0.2 mM EDTA, 300 uM RSRSRSRSRSRSRSR, 10 mM Magnesium acetate, 15 uM [gamma-33P-ATP]) and reacted at room temperature for 40 minutes. Then, the reaction was terminated by adding phosphoric acid (0.5%) to the reaction mixture, and 10 ul of the reaction solution was dropped onto a P30 filter. The filter was washed four times in a 0.425% phosphoric acid solution for 4 minutes, then washed once more in methanol, dried, and the PERK activity was measured by scintillation counting. […] The compound was diluted by 1/3 from the highest concentration of 1 uM and treated with a total of 9 concentrations to evaluate the degree of inhibition.

Test [4] has as its target recombinant human PKR protein (Homo sapiens, UniProt P19525). In words: Protein kinase R (PKR) inhibitory capacity, 33P-ATP filter assay. The test is classed as biochemical. The conditions noted are these: 15 uM [gamma-33P-ATP], 40 minutes, room temperature. As to the method: <Experimental Example 4> Evaluation of Protein Kinase R (PKR) Inhibitory Capacity
as §1, with “PKR” for “PERK”, “20” for “300”

For a further test, the system named is ATF4. Put plainly: Inhibition of ATF4, downstream factor of ISR, in HT-1080 cells, Western blot (FIG. 1). It is filed as cell-based, human. The conditions noted are these: amino acid deficiency, compound 50 nM, 24 hours. As to the method: (§2) <Experimental Example 5> Evaluation of Inhibitory Efficacy of ISR-Related Kinase GCN2 Under Amino Acid Deficiency Condition Using Western Blot
(§3) HT-1080 cells, a human fibrosarcoma cell line, were cultured in RPMI-1640 medium supplemented with 10% FBS, penicillin (penicillin; 100 IU/ml), and streptomycin (streptomycin; 100 μg/ml). Cells (1×10^6 cells/ml) were seeded onto 100 mm plates (polypropylene tissue culture plate) and incubated for 24 hours in a 37° C., 5% CO2 incubator before being used for experiments.
(§4) The following method was used to achieve amino acid deficiency conditions in cells. After 24 hours of cell culture, the cells were cultured in amino acids and L-glutamine-free RPMI-1640 medium supplemented with 10% FBS, penicillin (100 IU/ml), and streptomycin (100 μg/ml). After 24 hours of cell culture in RPMI-1640 without amino acids and L-glutamine, the compound prepared at a concentration of 50 nM was dispensed onto each plate and cultured for 24 hours in a 37° C., 5% CO2 incubator.
(§5) In order to measure the signal transduction inhibitory efficacy of GCN among the ISR-related kinases according to the present invention, the following experiment was performed using SDS-PAGE. The fibrosarcoma cell line HT-1080 cells cultured on plates as described above were washed with PBS after removing the culture medium. After removing PBS, the cells were lysed by adding a radio-immunoprecipitation assay buffer (RIPA buffer) containing 50 mM Tris (pH 7.4), 150 mM NaCl, 1% NP-40, 0.5% sodium deoxycholate, 2 mM sodium fluoride, 2 mM EDTA, 0.1% SDS, and a protease/phosphatase inhibitor cocktail to the plate. After centrifugation at 4° C., 13,000×g for 15 minutes, the protein in the upper layer was collected, and the protein concentration was measured at 562 nm using BCA (bicinchoninc acid) reagent, and the amount of protein in all samples was prepared at 20-50 μg.
(§6) After making the total volume the same using the sample buffer and RIPA buffer, it was heated at 97° C. for 5 minutes. Then, electrophoresis was performed on 8% or 12% SDS-PAGE at 80 V for 30 minutes and at 160 V for 1 hour and 30 minutes. After electrophoresis, the SDS-PAGE gel was transferred to an NC membrane (nitrocellulose membrane) at 90 V for 2 hours. The NC membrane was placed in TBST (tris buffer saline tween-20; 20 mM tris, 137 mM sodium chloride, 0.1% tween-20, pH 8.0) containing 5% non-fat skim milk, placed on a shaker, and reacted at room temperature for 1 hour.
(§7) Each primary antibody was diluted in TBST containing 5% non-fat skim milk, poured onto the NC membrane, and reacted at 4° C. for 24 hours. The membrane was washed three times for 10 minutes each with TBST. The secondary antibodies (anti-rabbit IgG and anti-mouse IgG labeled with horseradish peroxidase (HRP)) were diluted in TBST containing 5% non-fat skim milk and reacted with the membrane at room temperature for 1 hour. Upon completion of the reaction, the membrane was washed three times with TBST for 10 minutes each. Protein expression bands were detected by a chemiluminescence image analyzer (Image Quant LAS 500) after the ECL solution was reacted with the NC membrane.
FIG. 1 is a set of photographs confirming the mechanism proteins that react upon ISR activation, wherein the numbers correspond to example numbers of the present invention. […] They are also known to have an effect on increasing the expression of CHOP (GADD153), the most downstream factor of the mechanism. […] Thus, in addition to the activation of ISR by amino acid deficiency, a significant effect can be expected on the mechanism of inhibition of the activity of PERK, an ISR-related kinase, due to endoplasmic reticulum stress response.

For the next test, the target named is T2, phosphorylated GCN2 (Homo sapiens, UniProt Q9P2K8).
T2 construct: endogenous in cells; host or cells: HT-1080
T2 sequence (Q9P2K8 whole entry): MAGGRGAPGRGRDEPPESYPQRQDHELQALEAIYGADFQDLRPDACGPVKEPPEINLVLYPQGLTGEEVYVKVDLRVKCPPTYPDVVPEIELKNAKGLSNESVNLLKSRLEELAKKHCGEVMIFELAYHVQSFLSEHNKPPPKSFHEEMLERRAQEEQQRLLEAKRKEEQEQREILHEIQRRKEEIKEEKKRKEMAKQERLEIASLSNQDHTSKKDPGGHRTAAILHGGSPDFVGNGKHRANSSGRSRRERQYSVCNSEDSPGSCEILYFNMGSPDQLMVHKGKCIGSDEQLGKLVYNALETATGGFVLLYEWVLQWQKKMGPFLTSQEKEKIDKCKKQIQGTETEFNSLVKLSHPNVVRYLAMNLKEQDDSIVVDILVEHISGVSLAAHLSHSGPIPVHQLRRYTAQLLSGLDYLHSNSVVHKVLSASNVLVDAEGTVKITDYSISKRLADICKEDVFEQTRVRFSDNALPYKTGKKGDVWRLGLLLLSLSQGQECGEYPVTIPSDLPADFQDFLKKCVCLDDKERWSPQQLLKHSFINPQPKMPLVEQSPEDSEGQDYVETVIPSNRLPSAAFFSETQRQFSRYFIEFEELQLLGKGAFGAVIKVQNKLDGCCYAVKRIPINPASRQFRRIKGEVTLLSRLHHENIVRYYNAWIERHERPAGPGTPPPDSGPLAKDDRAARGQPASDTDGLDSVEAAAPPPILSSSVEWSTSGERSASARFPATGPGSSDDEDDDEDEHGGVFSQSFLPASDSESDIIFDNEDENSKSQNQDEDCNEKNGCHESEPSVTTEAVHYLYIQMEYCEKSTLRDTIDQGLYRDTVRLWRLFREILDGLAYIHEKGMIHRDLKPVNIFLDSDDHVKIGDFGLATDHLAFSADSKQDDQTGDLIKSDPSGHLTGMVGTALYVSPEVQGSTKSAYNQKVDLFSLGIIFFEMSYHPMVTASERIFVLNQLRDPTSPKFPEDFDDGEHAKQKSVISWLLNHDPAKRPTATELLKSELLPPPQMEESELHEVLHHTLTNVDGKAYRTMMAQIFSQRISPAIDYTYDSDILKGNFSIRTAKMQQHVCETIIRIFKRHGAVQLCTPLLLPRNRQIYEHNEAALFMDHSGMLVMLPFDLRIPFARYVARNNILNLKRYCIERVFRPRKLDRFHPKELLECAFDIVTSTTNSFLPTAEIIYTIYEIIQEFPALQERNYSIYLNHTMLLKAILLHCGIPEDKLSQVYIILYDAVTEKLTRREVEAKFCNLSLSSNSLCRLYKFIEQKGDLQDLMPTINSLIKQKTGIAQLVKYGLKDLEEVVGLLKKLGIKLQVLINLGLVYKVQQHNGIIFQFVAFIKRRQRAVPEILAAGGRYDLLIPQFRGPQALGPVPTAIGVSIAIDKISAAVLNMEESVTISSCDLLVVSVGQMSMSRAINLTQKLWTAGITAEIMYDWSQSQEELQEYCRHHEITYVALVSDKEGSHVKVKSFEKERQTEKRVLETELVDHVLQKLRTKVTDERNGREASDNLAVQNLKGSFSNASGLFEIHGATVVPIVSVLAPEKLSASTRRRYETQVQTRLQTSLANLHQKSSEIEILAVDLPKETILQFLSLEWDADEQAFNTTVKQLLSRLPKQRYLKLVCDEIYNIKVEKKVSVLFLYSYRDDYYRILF
In words: Inhibition of phosphorylated GCN2 under amino acid deficiency in HT-1080 cells, Western blot. The test is classed as cell-based. The conditions noted are these: compound 50 nM, 24 hours; for Phospho-GCN2 inhibition: symbols ◯ / X not defined. As to the method:
as §2, §3, §4, §5, §6, §7
GCN2, a key kinase of the integrated stress response (ISR), is phosphorylated in response to amino acid deficiency.
A general note: In western blotting, separated proteins are transferred to a membrane and probed.

Some results are limits rather than exact numbers.

Chain of recombinant human GCN2 protein (Q9P2K8 whole entry): as above
Chain of recombinant human PKR protein (P19525 whole entry): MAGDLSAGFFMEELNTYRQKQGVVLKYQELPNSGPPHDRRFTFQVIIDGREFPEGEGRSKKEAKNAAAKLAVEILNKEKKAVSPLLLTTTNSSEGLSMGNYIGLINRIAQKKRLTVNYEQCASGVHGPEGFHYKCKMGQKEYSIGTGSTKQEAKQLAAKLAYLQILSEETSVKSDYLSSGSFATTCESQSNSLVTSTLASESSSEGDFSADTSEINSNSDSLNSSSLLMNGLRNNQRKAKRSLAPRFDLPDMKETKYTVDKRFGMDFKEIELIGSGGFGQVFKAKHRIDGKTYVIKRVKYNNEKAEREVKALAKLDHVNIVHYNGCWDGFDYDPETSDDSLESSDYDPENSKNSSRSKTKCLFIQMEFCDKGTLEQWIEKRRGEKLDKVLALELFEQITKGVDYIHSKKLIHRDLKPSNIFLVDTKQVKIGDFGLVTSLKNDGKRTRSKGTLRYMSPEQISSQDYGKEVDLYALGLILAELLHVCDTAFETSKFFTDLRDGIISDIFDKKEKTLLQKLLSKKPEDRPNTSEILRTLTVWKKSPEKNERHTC

For orientation: IC50 means the concentration at which inhibition is half-maximal. In the case of `COc1ncc(C#N)cc1S(=O)(=O)Nc1ccc(F)c(-n2ccc3nc(N)ncc3c2=O)c1F` [Example 28, N-(3-(2-amino-5-oxopirido[4,3-d]pyrimidin-6(5H)-yl)-2,4-difluorophenyl)-5-cyano-2-methoxypyridine-3-sulfonamide], the IC50 is < 100 nM in test [1], 100 to 300 nM in test [2], < 100 nM in test [3] and > 1000 nM in test [4].
`Cn1c(=O)n(-c2c(F)ccc(NS(=O)(=O)c3cccc4ccccc34)c2F)c(=O)c2cnc(N)nc21` [Example 43, N-(3-(7-amino-1-methyl-2,4-dioxo-1,4-dihydropyrimido[4,5-d]pyrimidin-3(2H)-yl)-2,4-difluorophenyl)naphthalene-1-sulfonamide]: the half-maximal inhibitory concentration (IC50) in test [1] is 100 to 300 nM. Further, the “inhibitory effect on ATF4 (FIG. 1)” value in the test with ATF4 is “excellent inhibitory effects”. Further, on phosphorylated GCN2, the “inhibitory effect on the phosphorylated GCN2” value is “excellent inhibitory effects” and the Phospho-GCN2 inhibition entry was “◯”.
Turning to `COc1ccc(Br)cc1S(=O)(=O)Nc1ccc(F)c(-n2c(=O)c3cnc(N)nc3n(C)c2=O)c1F` [Example 51, N-(3-(7-amino-1-methyl-2,4-dioxo-1,2-dihydropyrimido[4,5-d]pyrimidin-3(4H)-yl)-2,4-difluorophenyl)-5-bromo-2-methoxybenzenesulfonamide], in test [1], the half-maximal inhibitory concentration (IC50) was 100 to 300 nM. Further, the “inhibitory effect on ATF4 (FIG. 1)” value in the test with ATF4 is recorded as “excellent inhibitory effects”. Moreover, at phosphorylated GCN2, the “inhibitory effect on the phosphorylated GCN2” value is recorded as “excellent inhibitory effects” and the Phospho-GCN2 inhibition result is “◯”.
As for `Cn1c(=O)n(-c2c(F)ccc(NS(=O)(=O)c3cc(Cl)cnc3Cl)c2F)c(=O)c2cnc(N)nc21` [Example 57, N-(3-(7-amino-1-methyl-2,4-dioxo-1,4-dihydropyrimido[4,5-d]pyrimidin-3(2H)-yl)-2,4-difluorophenyl)-2,5-dichloropyridine-3-sulfonamide], the IC50 in test [1] was < 100 nM; in test [2], 100 to 300 nM; in test [3] it was < 100 nM; in test [4], 300 to 1000 nM.

The values are drawn from patent US20260184706A1, “PHENYLSULFONAMIDE DERIVATIVES, PREPARATION METHOD THEREFOR, AND PHARMACEUTICAL COMPOSITION FOR PREVENTION OR TREATMENT OF CANCER CONTAINING SAME AS ACTIVE INGREDIENT” (Korea Research Institute of Chemical Technology, priority 2022, published 2026).
